From patent publication US8367873B2, “Phenyl-substituted bicyclooctane-1,3-dione derivatives” (Bayer Cropscience AG, priority 2008, dated 2013)

Key:
Format in all cases: in vivo
Alopecurus myosuroides [1] = assay: Herbicidal pre-emergence action; details: pre-emergence method, 80 g/ha, greenhouse, visual assessment vs untreated controls
Outline: (§1)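 Seeds sown in sandy loam and covered with soil; WP-formulated compounds applied as aqueous suspension (600 l/ha water, 0.2% wetting agent) to the soil surface at various rates. Greenhouse-grown; emergence damage scored visually after three weeks versus untreated controls (0% = like control, 100% = plants dead).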

Echinocloa crus-galli [2] = assay: Herbicidal pre-emergence action; details: pre-emergence method, 80 g/ha, greenhouse, visual assessment vs untreated controls
Outline: as §1

Lolium multiflorum [3] = assay: Herbicidal pre-emergence action; details: pre-emergence method, 80 g/ha, greenhouse, visual assessment vs untreated controls
Outline: as §1

Setaria viridis [4] = assay: Herbicidal pre-emergence action; details: pre-emergence method, 80 g/ha, greenhouse, visual assessment vs untreated controls
Outline: as §1

Alopecurus myosuroides [5] = assay: Herbicidal post-emergence action; details: post-emergence method, 80 g/ha
Outline: (§2)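 Visual % herbicidal effect vs untreated controls (100% = plants dead, 0% = as control), ~3 wk after spraying. Plants sown in sandy loam, greenhouse-grown, treated at one-leaf stage (2–3 wk post-sowing). WP formulations, 600 l/ha water + 0.2% wetting agent, various doses.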

Echinocloa crus-galli [6] = assay: Herbicidal post-emergence action; details: post-emergence method, 80 g/ha
Outline: as §2

Lolium multiflorum [7] = assay: Herbicidal post-emergence action; details: post-emergence method, 80 g/ha
Outline: as §2

Setaria viridis [8] = assay: Herbicidal post-emergence action; details: post-emergence method, 80 g/ha
Outline: as §2

[9] = test system: monocotylidonous and dicotylidonous weed and crop plants; assay: Herbicidal pre-emergence action (other test plants); details: pre-emergence method, 80 g/ha, greenhouse, visual assessment vs untreated controls
Outline: as §1

[10] = test system: monocotylidonous and dicotylidonous weed and crop plants; assay: Herbicidal post-emergence action (other test plants); details: post-emergence method, 80 g/ha
Outline: as §2

Structure (SMILES) | herbicidal effect ALOMY (Alopecurus myosuroides [1]) [%] | herbicidal effect ECHCG (Echinocloa crus-galli [2]) [%] | herbicidal effect LOLMU (Lolium multiflorum [3]) [%] | herbicidal effect SETVI (Setaria viridis [4]) [%] | herbicidal effect against ALOMY (Alopecurus myosuroides) (Alopecurus myosuroides [5]) [%] | herbicidal effect against ECHCG (Echinochloa crus-galli) (Echinocloa crus-galli [6]) [%] | herbicidal effect against LOLMU (Lolium multiflorum) (Lolium multiflorum [7]) [%] | herbicidal effect against SETVI (Setaria viridis) (Setaria viridis [8]) [%] | herbicidal effect AVEFA [9] [%] | herbicidal effect against AVEFA (Avena fatua) [10] [%]
COc1cc(C)cc(C)c1C1=C(OC(=O)C(C)C)C2CC3(CC2C1=O)OCCO3 (stereo not drawn) [I-b-65] | 60 | 90 | 100 | 70 | 90 | 100 | 100 | 100 | 70 | 90
CCc1cc(C)cc(C)c1C1=C(OC(C)=O)C2CC3(COC(C)(C)O3)CC2C1=O (stereo not drawn) [I-b-66] | 80 | 100 | 100 | 80 | 100 | 100 | 100 | 80 | 80 | 90
CCC(=O)OC1=C(c2c(C)cc(C)cc2CC)C(=O)C2CC3(COC(C)(C)O3)CC12 (stereo not drawn) [I-b-67] | 90 | 100 | 100 | 90 | 100 | 100 | 100 | 90 | 90 | 70
CCc1cc(C)cc(C)c1C1=C(OC(=O)C(C)C)C2CC3(COC(C)(C)O3)CC2C1=O (stereo not drawn) [I-b-69] | 100 | 100 | 100 | 80 | 90 | 100 | 100 | 60 | 80 | 10
CCc1cc(C)cc(C)c1C1=C(OC(=O)C(C)(C)C)C2CC3(COC(C)(C)O3)CC2C1=O (stereo not drawn) [I-b-70] | 100 | 100 | 100 | 90 | 70 | 100 | 100 | 40 | 80 | 0
C=C1CC2C(=O)C(c3c(C)cc(C)cc3CC)=C(OC(=O)C(C)C)C2C1 (stereo not drawn) [I-b-72] | 80 | 100 | 100 | 100 | 0 | 100 | 0 | 90 | 60 | 0
